Measurements from ChEMBL document CHEMBL2331238, “Xanthoquinodins from the endolichenic fungal strain Chaetomium elatum” (J Nat Prod, 2013).
pIC50: −log10 of the molar value.

What was measured:
Type in all cases: functional, cell-based
HL-60 = assay: Cytotoxicity against human HL60 cells assessed as cell viability measured after 48 hrs by MTT assay; conditions: HL-60, 48 h
A549 = assay: Cytotoxicity against human A549 assessed as cell viability measured after 48 hrs by MTT assay; conditions: A549, 48 h
SW480 = assay: Cytotoxicity against human SW480 assessed as cell viability measured after 48 hrs by MTT assay; conditions: SW480, 48 h
SMMC-7721 = assay: Cytotoxicity against human SMMC7721 assessed as cell viability measured after 48 hrs by MTT assay; conditions: SMMC-7721, 48 h
MCF7 = assay: Cytotoxicity against human MCF7 assessed as cell viability measured after 48 hrs by MTT assay; conditions: MCF7, 48 h

Compound | pIC50 (HL-60) | pIC50 (A549) | pIC50 (SW480) | pIC50 (SMMC-7721) | pIC50 (MCF7)
CC(=O)O[C@H]1C(=O)[C@@]2(C)[C@H]([C@H](OC(=O)c3ccccc3)[C@]3(O)C[C@H](OC(=O)[C@H](O)[C@@H](NC(=O)c4ccccc4)c4ccccc4)C(C)=C1C3(C)C)[C@]1(OC(C)=O)CO[C@@H]1C[C@@H]2O [PACLITAXEL] | > 8.10 | > 8.10 | > 8.10 | > 8.10 | > 8.10
COC(=O)[C@@]12Oc3cc4c(c(O)c3C(=O)C1=C(O)CC[C@@H]2O)[C@@H]1C=C[C@@]2(C4)C(=O)c3cc(C)cc(O)c3C(O)=C2C1=O [XANTHOQUINODIN A1] | 5.21 | 5.48 | 4.54 | 5.10 | 4.85
COC(=O)[C@]12Oc3cc4c(c(O)c3C(=O)C1=C(O)CC[C@@H]2O)[C@@H]1C=C[C@@]2(C4)C(=O)c3cc(C)cc(O)c3C(O)=C2C1=O [XANTHOQUINODIN A2] | 5.26 | 5.39 | < 4.40 | 5.17 | 4.68
COC(=O)[C@]1([C@@H]2CCC(=O)O2)CC(=O)c2c(cc3c(c2O)[C@@H]2C=C[C@@]4(C3)C(=O)c3cc(C)cc(O)c3C(O)=C4C2=O)O1 [XANTHOQUINODIN A3] | 5.38 | 4.82 | 4.81 | 4.78 | 5.13
COC(=O)[C@]1([C@@H]2CCC(=O)O2)CC(=O)c2c(cc3c(c2O)[C@@H]2C=C[C@]4(C3)C(=C(O)c3c(O)cc(C)cc3[C@@H]4O)C2=O)O1 [XANTHOQUINODIN A4] | < 4.40 | 4.59 | 4.72 | 4.72 | 4.51
COC(=O)CC[C@H](O)[C@@]1(C(=O)OC)CC(=O)c2c(cc3c(c2O)[C@@H]2C=C[C@]4(C3)C(=C(O)c3c(O)cc(C)cc3[C@@H]4O)C2=O)O1 [XANTHOQUINODIN A5] | 4.57 | 4.73 | 4.79 | 4.77 | 4.62
COC(=O)[C@]12Oc3cc4c(c(O)c3C(=O)C1=C(O)CC[C@@H]2O)[C@@H]1C=C[C@]2(C4)C(=C(O)c3c(O)cc(C)cc3[C@@H]2O)C1=O [XANTHOQUINODIN A6] | 5.43 | 5.69 | 5.19 | 5.54 | 5.25
COC(=O)[C@]12Oc3c(c(O)cc4c3[C@@H]3C=C[C@]5(C4)C(=C(O)c4c(O)cc(C)cc4[C@@H]5O)C3=O)C(=O)C1=C(O)CC[C@@H]2O [XANTHOQUINODIN B4] | 5.52 | 4.60 | < 4.40 | 4.56 | 4.52
COC(=O)[C@@]12Oc3c(c(O)cc4c3[C@@H]3C=C[C@]5(C4)C(=C(O)c4c(O)cc(C)cc4[C@@H]5O)C3=O)C(=O)C1=C(O)CC[C@@H]2O [XANTHOQUINODIN B5] | 5.32 | 4.94 | < 4.40 | 4.82 | 4.42
